Laboratory results: patent US6399353B1, “Papillomavirus: biosynthetic process and assays” (priority 1992, dated 2002)

Legend:
HPV 31b = experiment: Virion production in CIN-612 raft cultures (electron microscopy, isopycnic gradient, Southern blot); type: cell-based, Human papillomavirus
Description: (§1) Raft cultures were grown for 16 days then harvested, fixed in paraformaldehyde, embedded in paraffin and sectioned for immunohistostaining.
Raft tissue cross-sections were fixed with glutaraldehyde and stained with uranyl acetate. […] Virions were commonly observed in bilobulated koilocytic and dyskeratotic nuclei in which the nuclear chromatin had condensed at the nuclear envelope. At higher magnification the particles could be seen superimposed on heterochromatin, as is often seen in vivo. These particles are not seen in nuclei of untreated CIN-612 raft cultures. Virions approximately 54 nm in diameter were also prevalent in the stratum corneum of raft cultures. […] Similar results have been obtained with material from five separate experiments with different passages of CIN-612 cells.
Because infectious assays have not yet been developed for HPV, we sought to determine if the structures we observed in nuclei of CIN-612 cells were indeed virions. […]
Eight TPA-treated raft cultures were harvested and virions were isolated following a series of low speed and high speed centrifugations. […] Fractions from the bottom of the gradient through fractions determined positive for HPV 31b DNA by dot blot hybridization were dialyzed and examined by Southern blot hybridization. […]

CIN-612 cells = experiment: Immunostaining for keratin 10 and filaggrin in CIN-612 raft cultures; type: cell-based
[1] = tested on: L1 major capsid protein in CIN-612 rafts; experiment: Immunostaining for L1 major capsid protein in CIN-612 raft cross-sections; type: cell-based; conditions: CIN-612 raft cultures, TPA treated; untreated showed no specific nuclear staining
Description: as §1
In vivo expression of viral late genes is only detected in the highly differentiated suprabasal cells of infected tissue (Pfister, et al., 1987). Using antiserum to the HPV 16 L1 major capsid protein (Bedell, et al., 1991), which cross reacts with the L1 major capsid protein of various HPV types (Bedell, et al., 1991), the production of the L1 major capsid protein in the CIN-612 rafts grown with or without TPA treatment was determined. CIN-612 raft cross-sections were examined by immunostaining with the VECTASTAIN Elite ABC Kit (Vector Laboratories. Inc., Burlingame, Calif.) after treatment with antiserum against the major late capsid protein, L1.

[2] = CIN-612 rafts, 16 nM TPA, 16 to 24 h every four days, grown 16 days, immunostaining

CCCCCCCCCCCCCC(=O)O[C@@H]1[C@@H](C)[C@@]2(O)[C@@H](C=C(CO)C[C@]3(O)C(=O)C(C)=C[C@@H]23)[C@@H]2C(C)(C)[C@]12OC(C)=O [TPA, 12-O-tetradecanoylphorbol-13-acetate]
production of virions (HPV 31b; TPA added to media of organotypic (raft) cultures, electron microscopy): induced production of virions | yield of viral particles (HPV 31b; eight TPA-treated raft cultures, CsCl gradient fractions (lanes 7 and 8), estimated from copy number standards): at least 40 million | induction of differentiation (CIN-612 cells; CIN-612 raft cultures, 16 nM TPA in medium, 16 to 24 h every four days): Reproducible induction of differentiation | filaggrin expression (CIN-612 cells; [2]): strong expression of filaggrin was observed throughout the stratum granulosum and into the stratum corneum | keratin 10 expression (CIN-612 cells; [2]): expressed throughout most of the suprabasal layers, including the stratum corneum | expression of physiological markers of keratinocyte differentiation (CIN-612 cells; TPA added to media of organotypic (raft) cultures): increased expression | nuclear staining with L1 antiserum (major late capsid protein) [1]: specific nuclear staining was seen in the stratum granulosum and in the stratum corneum
